Reference: ChEMBL document CHEMBL3763027, “Identification and characterization of potent, selective and metabolically stable IKKβ inhibitor” (Bioorg Med Chem Lett, 2016)
The source made the active and inactive calls. The calls are words filed in the database; no cut-off is given here.

Key:
[1] = target: Proto-oncogene tyrosine-protein kinase Src (Homo sapiens) (UniProt P12931); assay: Inhibition of c-Src (unknown origin) at 10 uM
[2] = target: Tyrosine-protein kinase Lck (Homo sapiens) (UniProt P06239); assay: Inhibition of LCK (unknown origin) at 10 uM
Chain of Tyrosine-protein kinase Lck (Homo sapiens) (P06239 2-509 limits assumed): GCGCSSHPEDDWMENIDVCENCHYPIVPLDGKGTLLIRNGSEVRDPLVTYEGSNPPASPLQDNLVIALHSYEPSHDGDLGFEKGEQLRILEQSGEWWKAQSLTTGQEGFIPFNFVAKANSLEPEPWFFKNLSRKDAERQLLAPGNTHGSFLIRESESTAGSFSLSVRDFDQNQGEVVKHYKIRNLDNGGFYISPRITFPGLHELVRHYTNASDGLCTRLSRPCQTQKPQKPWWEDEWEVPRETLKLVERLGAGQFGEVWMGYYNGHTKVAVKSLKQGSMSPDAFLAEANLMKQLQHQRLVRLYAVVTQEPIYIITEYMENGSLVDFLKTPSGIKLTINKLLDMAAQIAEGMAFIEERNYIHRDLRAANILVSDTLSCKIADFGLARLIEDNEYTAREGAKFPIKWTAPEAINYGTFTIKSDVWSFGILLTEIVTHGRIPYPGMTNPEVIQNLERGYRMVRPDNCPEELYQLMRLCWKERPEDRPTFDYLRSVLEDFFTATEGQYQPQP

[3] = system: Rattus norvegicus; assay: Volume of distribution in Sprague-Dawley rat at 2 mg/kg, po after 0.25 to 24 hrs; assay type: ADME, organism-based; settings: in vivo
[4] = Clearance in Sprague-Dawley rat at 1 mg/kg, iv after 0.25 to 24 hrs; assay type: ADME, organism-based; settings: in vivo
[5] = target: Calcium/calmodulin-dependent protein kinase type 1 (Homo sapiens) (UniProt Q14012); assay: Inhibition of CAMK1alpha (unknown origin) at 10 uM
Chain of Calcium/calmodulin-dependent protein kinase type 1 (Homo sapiens) (Q14012 whole entry, looked up): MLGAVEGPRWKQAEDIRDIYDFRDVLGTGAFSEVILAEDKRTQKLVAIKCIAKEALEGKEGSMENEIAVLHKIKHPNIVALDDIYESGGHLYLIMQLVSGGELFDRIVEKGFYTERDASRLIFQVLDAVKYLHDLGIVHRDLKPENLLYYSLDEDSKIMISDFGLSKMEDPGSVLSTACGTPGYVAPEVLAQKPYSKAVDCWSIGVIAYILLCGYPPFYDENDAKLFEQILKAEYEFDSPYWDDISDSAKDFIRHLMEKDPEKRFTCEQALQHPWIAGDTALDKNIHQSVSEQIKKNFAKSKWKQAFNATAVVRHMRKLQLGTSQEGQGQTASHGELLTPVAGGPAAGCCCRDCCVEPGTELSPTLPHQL

[6] = system: Mus musculus; assay: Toxicity in ICR mouse assessed as mortality at 2000 mg/kg, po administered for 14 days measured on day 15; assay type: organism-based; settings: in vivo, 336 h
[7] = Half life in Sprague-Dawley rat at 1 mg/kg, iv after 0.25 to 24 hrs; assay type: ADME, organism-based; settings: in vivo
[8] = Oral bioavailability in Sprague-Dawley rat at 2 mg/kg after 0.25 to 24 hrs; assay type: ADME, organism-based; settings: in vivo
[9] = target: Tyrosine-protein kinase Lyn (Homo sapiens) (UniProt P07948); assay: Inhibition of LYN (unknown origin) at 10 uM
[10] = target: T1, Inhibitor of nuclear factor kappa-B kinase subunit beta (Homo sapiens) (UniProt O14920); assay: Non-competitive inhibition of IKKbeta (unknown origin) using FAM-IkBalpha derived peptide as substrate at 0.5 to 1 uM incubated for 1 hr measured after 15 hrs by Lineweaver-Burk plot method in the presence of 0.625 to 10 uM ATP
T1 sequence (whole entry): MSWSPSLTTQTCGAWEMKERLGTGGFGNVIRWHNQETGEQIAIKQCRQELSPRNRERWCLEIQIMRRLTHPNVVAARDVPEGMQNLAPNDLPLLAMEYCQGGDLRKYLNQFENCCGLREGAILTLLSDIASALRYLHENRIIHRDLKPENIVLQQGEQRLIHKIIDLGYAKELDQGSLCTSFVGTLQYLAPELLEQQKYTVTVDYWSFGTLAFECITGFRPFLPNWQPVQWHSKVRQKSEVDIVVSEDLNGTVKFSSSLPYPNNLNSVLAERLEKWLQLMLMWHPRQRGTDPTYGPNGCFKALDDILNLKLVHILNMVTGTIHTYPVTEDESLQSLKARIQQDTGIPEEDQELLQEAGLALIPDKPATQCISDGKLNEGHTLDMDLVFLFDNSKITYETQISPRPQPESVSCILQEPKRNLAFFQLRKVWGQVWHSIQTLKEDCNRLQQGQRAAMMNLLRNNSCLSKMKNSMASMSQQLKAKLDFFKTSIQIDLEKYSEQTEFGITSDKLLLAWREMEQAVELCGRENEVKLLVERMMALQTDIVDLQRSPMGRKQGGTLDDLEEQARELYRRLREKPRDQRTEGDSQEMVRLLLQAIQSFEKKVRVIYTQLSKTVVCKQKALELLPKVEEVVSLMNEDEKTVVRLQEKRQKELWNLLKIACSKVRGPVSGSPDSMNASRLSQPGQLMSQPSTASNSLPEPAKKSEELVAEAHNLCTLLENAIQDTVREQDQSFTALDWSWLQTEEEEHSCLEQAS

[11] = target: Casein kinase I isoform delta (Homo sapiens) (UniProt P48730); assay: Inhibition of CK1delta (unknown origin) at 10 uM
[12] = system: Mus musculus; assay: Toxicity in male ICR mouse assessed as average body weight at 2000 mg/kg, po administered on day 1 measured 3 hrs post dose (reference value: 20.3 +/- 0.4 g); assay type: organism-based; settings: in vivo
[13] = system: Mus musculus; assay: Toxicity in male ICR mouse assessed as average body weight at 2000 mg/kg, po administered for 7 days measured 3 hrs post last dose (reference value: 20.3 +/- 0.4 g); assay type: organism-based; settings: in vivo
[14] = target: CDK6/cyclin D1 (Homo sapiens) (UniProt P24385+Q00534); assay: Inhibition of CDK6/cyclin D1 (unknown origin) at 10 uM; assay type: protein-complex assay
[15] = Cmax in Sprague-Dawley rat at 2 mg/kg, po after 0.25 to 24 hrs; assay type: ADME, organism-based; set-up: dose 2 mg/kg, route oral; settings: in vivo
[16] = target: Mitogen-activated protein kinase 10 (Homo sapiens) (UniProt P53779); assay: Inhibition of JNK3 (unknown origin) at 10 uM
Chain of Mitogen-activated protein kinase 10 (Homo sapiens) (P53779 whole entry): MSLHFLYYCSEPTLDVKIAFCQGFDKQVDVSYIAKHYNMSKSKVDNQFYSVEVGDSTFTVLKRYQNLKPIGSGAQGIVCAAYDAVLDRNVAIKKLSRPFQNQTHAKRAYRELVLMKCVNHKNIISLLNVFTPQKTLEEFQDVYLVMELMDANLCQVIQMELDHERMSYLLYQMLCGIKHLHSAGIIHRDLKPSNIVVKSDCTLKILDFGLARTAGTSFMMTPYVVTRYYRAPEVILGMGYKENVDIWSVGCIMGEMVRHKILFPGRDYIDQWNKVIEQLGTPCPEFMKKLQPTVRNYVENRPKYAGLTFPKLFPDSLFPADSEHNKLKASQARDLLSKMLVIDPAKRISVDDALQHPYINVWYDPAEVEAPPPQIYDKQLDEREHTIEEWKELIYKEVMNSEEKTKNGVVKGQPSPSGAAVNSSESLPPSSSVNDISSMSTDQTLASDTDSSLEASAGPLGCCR

[17] = target: Tyrosine-protein kinase ABL1 (Homo sapiens) (UniProt P00519); assay: Inhibition of Abl1 (unknown origin) at 10 uM
Chain of Tyrosine-protein kinase ABL1 (Homo sapiens) (P00519 whole entry): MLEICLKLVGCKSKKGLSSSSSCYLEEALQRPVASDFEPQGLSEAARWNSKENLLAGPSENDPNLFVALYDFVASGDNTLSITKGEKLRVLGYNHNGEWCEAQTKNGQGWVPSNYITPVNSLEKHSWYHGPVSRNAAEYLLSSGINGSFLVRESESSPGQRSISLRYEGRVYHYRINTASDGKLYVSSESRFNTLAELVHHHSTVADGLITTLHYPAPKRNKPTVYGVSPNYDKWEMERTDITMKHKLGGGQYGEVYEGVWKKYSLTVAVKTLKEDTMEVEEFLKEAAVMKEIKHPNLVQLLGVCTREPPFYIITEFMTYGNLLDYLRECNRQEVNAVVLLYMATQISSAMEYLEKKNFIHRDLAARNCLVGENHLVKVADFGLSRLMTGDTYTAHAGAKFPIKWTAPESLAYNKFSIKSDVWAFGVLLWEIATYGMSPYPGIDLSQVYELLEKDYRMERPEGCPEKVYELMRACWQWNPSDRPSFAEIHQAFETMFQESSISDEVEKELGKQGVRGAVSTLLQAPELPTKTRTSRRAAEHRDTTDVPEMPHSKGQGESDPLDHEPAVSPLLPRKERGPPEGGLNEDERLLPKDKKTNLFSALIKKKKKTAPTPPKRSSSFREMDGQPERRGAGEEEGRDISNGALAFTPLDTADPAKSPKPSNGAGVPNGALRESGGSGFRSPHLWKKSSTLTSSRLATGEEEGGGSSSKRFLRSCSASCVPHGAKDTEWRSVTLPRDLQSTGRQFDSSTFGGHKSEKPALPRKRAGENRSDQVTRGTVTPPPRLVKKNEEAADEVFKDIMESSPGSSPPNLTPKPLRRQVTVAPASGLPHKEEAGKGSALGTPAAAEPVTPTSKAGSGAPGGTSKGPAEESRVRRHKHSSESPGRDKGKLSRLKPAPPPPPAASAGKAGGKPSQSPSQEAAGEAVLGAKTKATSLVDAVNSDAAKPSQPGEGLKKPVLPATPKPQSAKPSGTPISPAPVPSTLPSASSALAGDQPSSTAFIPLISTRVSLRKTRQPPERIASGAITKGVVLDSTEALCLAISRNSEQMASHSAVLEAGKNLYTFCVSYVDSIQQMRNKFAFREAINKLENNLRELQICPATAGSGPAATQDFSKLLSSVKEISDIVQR

[18] = target: Ribosomal protein S6 kinase alpha-4 (Homo sapiens) (UniProt O75676); assay: Inhibition of MSK2 (unknown origin) at 10 uM
Chain of Ribosomal protein S6 kinase alpha-4 (Homo sapiens) (O75676 whole entry, looked up): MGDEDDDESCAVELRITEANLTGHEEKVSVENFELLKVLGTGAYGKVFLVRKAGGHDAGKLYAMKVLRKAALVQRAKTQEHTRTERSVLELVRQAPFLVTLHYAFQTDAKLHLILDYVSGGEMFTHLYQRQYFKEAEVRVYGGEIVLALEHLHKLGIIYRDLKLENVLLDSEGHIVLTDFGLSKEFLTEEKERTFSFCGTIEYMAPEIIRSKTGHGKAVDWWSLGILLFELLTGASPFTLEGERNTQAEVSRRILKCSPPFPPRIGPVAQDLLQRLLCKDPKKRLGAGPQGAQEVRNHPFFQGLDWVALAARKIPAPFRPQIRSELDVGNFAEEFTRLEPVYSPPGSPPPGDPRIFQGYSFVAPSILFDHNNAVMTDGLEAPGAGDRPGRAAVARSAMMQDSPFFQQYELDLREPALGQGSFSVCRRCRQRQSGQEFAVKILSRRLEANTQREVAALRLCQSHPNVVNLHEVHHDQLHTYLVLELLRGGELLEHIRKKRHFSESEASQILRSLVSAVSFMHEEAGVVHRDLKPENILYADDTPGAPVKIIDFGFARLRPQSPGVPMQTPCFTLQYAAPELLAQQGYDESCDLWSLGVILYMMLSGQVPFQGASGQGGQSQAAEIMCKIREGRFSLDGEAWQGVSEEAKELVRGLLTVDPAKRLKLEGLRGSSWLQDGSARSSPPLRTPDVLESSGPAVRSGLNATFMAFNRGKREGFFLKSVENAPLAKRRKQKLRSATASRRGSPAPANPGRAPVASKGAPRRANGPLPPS

[19] = target: Serine/threonine-protein kinase B-raf (Homo sapiens) (UniProt P15056); assay: Inhibition of BRAF (unknown origin) at 10 uM
Chain of Serine/threonine-protein kinase B-raf (Homo sapiens) (P15056 whole entry): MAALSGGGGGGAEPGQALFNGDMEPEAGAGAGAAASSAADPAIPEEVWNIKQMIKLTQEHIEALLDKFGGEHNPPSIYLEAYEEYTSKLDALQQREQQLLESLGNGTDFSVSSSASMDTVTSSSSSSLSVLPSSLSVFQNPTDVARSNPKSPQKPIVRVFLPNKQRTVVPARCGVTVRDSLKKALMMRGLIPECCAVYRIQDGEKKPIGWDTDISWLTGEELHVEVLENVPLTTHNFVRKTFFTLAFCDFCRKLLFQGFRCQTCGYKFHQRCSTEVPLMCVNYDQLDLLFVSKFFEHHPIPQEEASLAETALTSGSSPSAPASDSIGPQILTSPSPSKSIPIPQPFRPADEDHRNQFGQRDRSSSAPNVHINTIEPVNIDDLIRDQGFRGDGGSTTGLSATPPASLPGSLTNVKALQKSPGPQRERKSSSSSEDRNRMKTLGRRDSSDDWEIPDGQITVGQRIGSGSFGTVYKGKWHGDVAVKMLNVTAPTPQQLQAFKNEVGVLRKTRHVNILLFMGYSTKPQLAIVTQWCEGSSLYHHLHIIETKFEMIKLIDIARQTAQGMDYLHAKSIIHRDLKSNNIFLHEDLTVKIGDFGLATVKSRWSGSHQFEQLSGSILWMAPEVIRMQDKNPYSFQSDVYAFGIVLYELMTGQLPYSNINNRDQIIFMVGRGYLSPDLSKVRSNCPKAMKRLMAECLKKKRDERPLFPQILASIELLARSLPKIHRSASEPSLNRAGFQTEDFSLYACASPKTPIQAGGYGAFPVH

[20] = target: MAP kinase-interacting serine/threonine-protein kinase 2 (Homo sapiens) (UniProt Q9HBH9); assay: Inhibition of MNK2 (unknown origin) at 10 uM
[21] = Cmax in Sprague-Dawley rat at 1 mg/kg, iv after 0.25 to 24 hrs; assay type: ADME, organism-based; set-up: dose 1 mg/kg, route intravenous; settings: in vivo
[22] = system: Mus musculus; assay: Toxicity in female ICR mouse assessed as average body weight at 2000 mg/kg, po administered for 10 days measured 3 hrs post last dose (reference value: 18.9 +/- 0.9 g); assay type: organism-based; settings: in vivo
[23] = system: Mus musculus; assay: Toxicity in female ICR mouse assessed as average body weight at 2000 mg/kg, po administered on day 1 measured 3 hrs post dose (reference value: 18.9 +/- 0.9 g); assay type: organism-based; settings: in vivo
[24] = system: Mus musculus; assay: Toxicity in male ICR mouse assessed as average body weight at 2000 mg/kg, po administered for 10 days measured 3 hrs post last dose (reference value: 20.3 +/- 0.4 g); assay type: organism-based; settings: in vivo
[25] = system: Mus musculus; assay: Toxicity in female ICR mouse assessed as average body weight at 2000 mg/kg, po administered for 7 days measured 3 hrs post last dose (reference value: 18.9 +/- 0.9 g); assay type: organism-based; settings: in vivo
[26] = Volume of distribution in Sprague-Dawley rat at 1 mg/kg, iv after 0.25 to 24 hrs; assay type: ADME, organism-based; settings: in vivo
[27] = system: Mus musculus; assay: Toxicity in ICR mouse assessed as change in organ anatomy at 2000 mg/kg, po administered for 14 days measured on day 15; assay type: organism-based; settings: in vivo, 336 h
[28] = target: MAP kinase-interacting serine/threonine-protein kinase 1 (Homo sapiens) (UniProt Q9BUB5); assay: Inhibition of MNK1 (unknown origin) at 10 uM
Chain of MAP kinase-interacting serine/threonine-protein kinase 1 (Homo sapiens) (Q9BUB5 whole entry, looked up): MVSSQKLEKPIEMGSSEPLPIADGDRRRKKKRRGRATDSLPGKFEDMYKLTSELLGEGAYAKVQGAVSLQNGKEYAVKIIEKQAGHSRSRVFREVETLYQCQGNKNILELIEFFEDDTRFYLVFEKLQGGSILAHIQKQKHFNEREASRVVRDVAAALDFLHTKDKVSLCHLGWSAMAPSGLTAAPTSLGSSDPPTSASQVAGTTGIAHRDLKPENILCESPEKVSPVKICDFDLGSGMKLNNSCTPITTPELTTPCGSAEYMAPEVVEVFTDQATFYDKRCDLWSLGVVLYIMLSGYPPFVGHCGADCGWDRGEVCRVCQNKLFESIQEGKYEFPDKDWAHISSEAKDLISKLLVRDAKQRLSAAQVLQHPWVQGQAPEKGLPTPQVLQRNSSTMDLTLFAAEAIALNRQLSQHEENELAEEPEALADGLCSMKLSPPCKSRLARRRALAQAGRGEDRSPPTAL

Chain of Proto-oncogene tyrosine-protein kinase Src (Homo sapiens) (P12931 2-536 limits assumed): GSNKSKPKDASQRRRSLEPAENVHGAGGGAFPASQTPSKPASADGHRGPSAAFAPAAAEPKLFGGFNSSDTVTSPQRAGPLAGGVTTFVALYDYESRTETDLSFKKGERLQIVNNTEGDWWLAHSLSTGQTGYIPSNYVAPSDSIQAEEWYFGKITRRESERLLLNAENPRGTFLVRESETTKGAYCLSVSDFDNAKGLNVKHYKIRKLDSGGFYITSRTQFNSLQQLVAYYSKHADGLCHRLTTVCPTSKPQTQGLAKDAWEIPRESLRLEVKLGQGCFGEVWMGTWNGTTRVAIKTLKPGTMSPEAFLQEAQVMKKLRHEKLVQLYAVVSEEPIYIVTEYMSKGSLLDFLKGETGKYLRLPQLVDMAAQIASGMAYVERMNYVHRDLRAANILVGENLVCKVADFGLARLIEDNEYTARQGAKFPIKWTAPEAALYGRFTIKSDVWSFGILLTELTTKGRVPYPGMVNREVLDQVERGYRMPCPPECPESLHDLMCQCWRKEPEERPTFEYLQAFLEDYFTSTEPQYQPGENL

CN1CCN(CCCOc2ccc(N3C(=O)/C(=C/c4ccc(Oc5ccc(F)cc5)cc4)SC3=S)cc2)CC1
inhibition [1]: 14%
inhibition [2]: 0%
Vd [3]: 50.58 L/kg
clearance [4]: 98 mL/min/kg
inhibition [5]: 58.6%
Activity [6]: Non-toxic
half-life [7]: 5.5 h
bioavailability [8]: 23%
inhibition [9]: 27.8%
inhibition [10]: Active
inhibition [11]: 0%
Activity [12]: 21.5 g
Activity [13]: 26.2 g
inhibition [14]: 12.9%
Cmax [15]: 8.6 ng/mL
inhibition [16]: 0%
inhibition [17]: 20%
inhibition [18]: 0%
inhibition [19]: 0%
inhibition [20]: 33.1%
Cmax [21]: 94 ng/mL
Activity [22]: 31.3 g
Activity [23]: 19.7 g
Activity [24]: 27.4 g
Activity [25]: 28.9 g
Vd [26]: 44.3 L/kg
Activity [27]: Non-toxic
inhibition [28]: 0%
